Measurements as given in patent US8410145B2, “Insecticidal compounds” (Syngenta Crop Protection LLC, priority 2007, dated 2013).

Key:
Assay type in all cases: in vivo
[1] = test system: Spodoptera littoralis, Heliothis virescens, Plutella xylostella, Diabrotica balteata, Thrips tabaci, Tetranychus urticae; experiment: Pesticidal tests, same protocols (all six pests taken together); conditions: same protocols as b207 (200 ppm), under the test conditions
Text: (§1) Cotton leaf discs were placed on agar in a 24-well microtiter plate and sprayed with test solutions at an application rate of 200 ppm. After drying, the leaf discs were infested with 5 to L1 larvae. The samples were checked for mortality, feeding behavior, and growth regulation 3 days after treatment (DAT). The following compounds gave at least 80% control of Spodoptera littoralis: A1, A2, A3, A4, A6, A9, A10, A11, A12, A13, A14, A15, A16, A19, A20, A22, A23, A25, A26, A27, B1, B2, B3, B5, B6, B7, B8, B9, B11, B12, B13, B15, B16, B18, B19, B20, B21, B22, B24, B26, B27, B28, C1, C2, C3, C4, C5, C6, C7, C8, C9, C10, C12, C13, C16, C19, C20, C21, C22, C23, D1, D2, D3, D4, D5, D6, D7, D8, D9, D10, D11, D12, D13, D14, D15, D16, D17, D18, D19, D20, D21, D22, D23, D24. Heliothis virescens (Tobacco Budworm): Eggs (0-24 h old) were placed in 24-well microtiter plate on artificial diet and treated with test solutions at an application rate of 200 ppm (concentration in well 18 ppm) by pipetting. After an incubation period of 4 days, samples were checked for egg mortality, larval mortality, and growth regulation. The following compounds gave at least 80% control of Heliothis virescens: A1, A2, A3, A4, A13, A15, A17, A19, A20, A22, A23, A25, A26, A28, B1, B2, B3, B5, B6, B7, B9, B11, B13, B15, B18, B19, B20, B21, B25, B26, B27, B28, C1, C2, C3, C4, C5, C6, C7, C8, C9, C10, C12, C14, C16, C17, C19, C20, C21, C22, D1, D2, D3, D4, D5, D6, D7, D8, D9, D10, D11, D12, D13, D14, D15, D16, D17, D18, D19, D20, D21, D22, D23, E1, E2, E3, E4, E5. Plutella xylostella (Diamond Back Moth): 24-well microtiter plate (MTP) with artificial diet was treated with test solutions at an application rate of 200 ppm (concentration in well 18 ppm) by pipetting. After drying, the MTP's were infested with L2 larvae (7-12 per well). After an incubation period of 6 days, samples were checked for larval mortality and growth regulation. The following compounds gave at least 80% control of Plutella xylostella: A1, A3, A4, A10, All, A15, A19, A23, A25, B1, B2, B3, B5, B6, B7, B8, B9, B11, B13, B15, B18, B19, B20, B21, B26, B27, B28, C1, C2, C3, C4, C6, C7, C8, C9, C12, C16, C19, C20, C22, D1, D2, D3, D4, D5, D6, D7, D8, D9, D10, D12, D13, D14, D15, D16, D17, D18, D19, D20, D21, D22, D23, E1, E3, E5. Diabrotica balteata (Corn Root Worm): A 24-well microtiter plate (MTP) with artificial diet was treated with test solutions at an application rate of 200 ppm (concentration in well 18 ppm) by pipetting. After drying, the MTP's were infested with L2 larvae (6-10 per well). After an incubation period of 5 days, samples were checked for larval mortality and growth regulation. The following compounds gave at least 80% control of Diabrotica balteata: A2, A3, A4, A9, A11, A12, A13, A14, A15, A17, A19, A21, A22, A23, A24, A25, A26, B1, B2, B3, B6, B7, B8, B11, B13, B14, B15, B18, B19, B20, B21, B22, B26, B28, C1, C2, C3, C4, C5, C6, C7, C8, C9, C10, C12, C14, C15, C16, C19, C20, C21, C22, C23, C26, D1, D2, D4, D5, D6, D7, D8, D9, D10, D12, D14, D15, D16, D17, D18, D19, D20, D21, D22, D23, E2, E3, E5. Thrips tabaci (Onion Thrips): Sunflower leaf discs were placed on agar in a 24-well microtiter plate and sprayed with test solutions at an application rate of 200 ppm. After drying, the leaf discs were infested with an […] population of mixed ages. After an incubation period of 7 days, samples were checked for mortality. The following compounds gave at least 80% control of Thrips tabaci: B1, B7, B11, B15, B18, B19, B28, D1, D2, D3, D4, D5, D6, D7, D8, D9, D10, D12, D16, D18, D19, D20, D21, D23. Tetranychus urticae (Two-Spotted Spider Mite): Bean leaf discs on agar in 24-well microtiter plates were sprayed with test solutions at an application rate of 200 ppm. After drying, the leaf discs are infested with mite populations of mixed ages. 8 days later, discs are checked for egg mortality, larval mortality, and adult mortality. […]

[2] = test system: Spodoptera littoralis (Egyptian Cotton Leafworm); experiment: Spodoptera littoralis cotton leaf disc spray test; conditions: foliar, 72 h, 200 ppm spray on cotton leaf discs, L1 larvae, mortality, feeding behavior, growth regulation 3 DAT
Text: as §1

[3] = test system: Plutella xylostella (Diamond Back Moth); experiment: Plutella xylostella larvae test on artificial diet; conditions: 144 h, 200 ppm (concentration in well 18 ppm), L2 larvae, larval mortality and growth regulation after 6 days
Text: as §1

[4] = test system: Diabrotica balteata (Corn Root Worm); experiment: Diabrotica balteata larvae test on artificial diet; conditions: 120 h, 200 ppm (concentration in well 18 ppm), L2 larvae, larval mortality and growth regulation after 5 days
Text: as §1

[5] = test system: Heliothis virescens (Tobacco Budworm); experiment: Heliothis virescens egg test on artificial diet; conditions: 96 h, 200 ppm (concentration in well 18 ppm), eggs 0-24 h old on artificial diet, egg mortality, larval mortality, growth regulation after 4 days
Text: as §1

| SMILES | effect on mortality, feeding behavior, or growth regulation [1] | pest or weed control at 200 ppm [2] [%] | pest or weed control at 200 ppm [3] [%] | pest or weed control at 200 ppm [4] [%] | pest or weed control at 200 ppm [5] [%] |
| --- | --- | --- | --- | --- | --- |
| O=C(Nc1cccc(C2=NOC(c3cc(Cl)cc(Cl)c3)(C(F)(F)F)C2)c1F)c1ccco1 (stereo not shown) [B10] | little or no effect | – | – | – | – |
| O=C(Nc1cc(C2=NOC(c3cc(Cl)cc(Cl)c3)(C(F)(F)F)C2)ccc1F)c1ccccc1Cl (stereo not shown) [C7] | – | ≥ 80 | ≥ 80 | ≥ 80 | ≥ 80 |
| Cc1ccccc1C(=O)Nc1cccc(C2=NOC(c3cc(Cl)cc(Cl)c3)(C(F)(F)F)C2)c1F (stereo not shown) [B2] | – | ≥ 80 | ≥ 80 | ≥ 80 | ≥ 80 |
| O=C(Cc1ccc(Cl)cc1)Nc1cccc(C2=NOC(c3cc(Cl)cc(Cl)c3)(C(F)(F)F)C2)c1 (stereo not shown) [A5] | little or no effect | – | – | – | – |
| CSc1ccccc1C(=O)Nc1cccc(C2=NOC(c3cc(Cl)cc(Cl)c3)(C(F)(F)F)C2)c1F (stereo not shown) [B27] | – | ≥ 80 | ≥ 80 | – | ≥ 80 |
| O=C(Nc1cccc(C2=NOC(c3cc(Cl)cc(Cl)c3)(C(F)(F)F)C2)c1F)c1ccc(F)cc1 (stereo not shown) [B17] | little or no effect | – | – | – | – |
| O=C(Nc1cc(C2=NOC(c3cc(Cl)cc(Cl)c3)(C(F)(F)F)C2)ccc1F)c1cc(Cl)ccc1F (racemic) [C11] | little or no effect | – | – | – | – |
| O=C(Nc1cccc(C2=NOC(c3cc(Cl)cc(Cl)c3)(C(F)(F)F)C2)c1F)c1ccc(F)cc1F (stereo not shown) [B22] | – | ≥ 80 | – | ≥ 80 | – |
| O=C(Nc1cc(C2=NOC(c3cc(Cl)cc(Cl)c3)(C(F)(F)F)C2)ccc1F)c1cccc(F)c1F (stereo not shown) [C23] | – | ≥ 80 | – | ≥ 80 | – |
| O=C(Nc1cccc(C2=NOC(c3cc(Cl)cc(Cl)c3)(C(F)(F)F)C2)c1)c1ccc(F)c(C(F)(F)F)c1 (racemic) [A18] | little or no effect | – | – | – | – |
| O=C(Nc1cccc(C2=NOC(c3cc(Cl)cc(Cl)c3)(C(F)(F)F)C2)c1F)c1cccnc1 (stereo not shown) [B26] | – | ≥ 80 | ≥ 80 | ≥ 80 | ≥ 80 |
| O=C(Nc1cccc(C2=NOC(c3cc(Cl)cc(Cl)c3)(C(F)(F)F)C2)c1F)c1ccccc1Cl (stereo not shown) [B3] | – | ≥ 80 | ≥ 80 | ≥ 80 | ≥ 80 |
| O=C(Nc1cc(C2=NOC(c3cc(Cl)cc(Cl)c3)(C(F)(F)F)C2)ccc1F)c1ccc(F)cc1 (stereo not shown) [C20] | – | ≥ 80 | ≥ 80 | ≥ 80 | ≥ 80 |
| CCCCC(=O)Nc1cccc(C2=NOC(c3cc(Cl)cc(Cl)c3)(C(F)(F)F)C2)c1 (stereo not shown) [A6, pentanoic acid {3-[5-(3,5-dichloro-phenyl)-5-trifluoromethyl-4,5-dihydro-isoxazol-3-yl]-phenyl}-amide] | – | ≥ 80 | – | – | – |
| N#Cc1ccc(C2=NOC(c3cc(Cl)cc(Cl)c3)(C(F)(F)F)C2)cc1NC(=O)c1ccco1 (stereo not shown) [D13] | – | ≥ 80 | ≥ 80 | – | ≥ 80 |
| O=C(CBr)Nc1cccc(C2=NOC(c3cc(Cl)cc(Cl)c3)(C(F)(F)F)C2)c1 (stereo not shown) [A8] | little or no effect | – | – | – | – |
| O=C(Nc1cc(C2=NOC(c3cc(Cl)cc(Cl)c3)(C(F)(F)F)C2)ccc1F)c1ccco1 (stereo not shown) [C13] | – | ≥ 80 | – | – | – |
| Cc1cc(NC(=O)c2ccc(C#N)cc2)cc(C2=NOC(c3cc(Cl)cc(Cl)c3)(C(F)(F)F)C2)c1 (stereo not shown) [E1] | – | – | ≥ 80 | – | ≥ 80 |
| O=C(Nc1cccc(C2=NOC(c3cc(Cl)cc(Cl)c3)(C(F)(F)F)C2)c1F)c1ccccn1 (stereo not shown) [B25] | – | – | – | – | ≥ 80 |
| O=C(Nc1cc(C2=NOC(c3cc(Cl)cc(Cl)c3)(C(F)(F)F)C2)ccc1F)c1ccccc1 (stereo not shown) [C19] | – | ≥ 80 | ≥ 80 | ≥ 80 | ≥ 80 |
| O=C(Nc1cc(C2=NOC(c3cc(Cl)cc(Cl)c3)(C(F)(F)F)C2)ccc1F)c1ccccc1F (stereo not shown) [C5] | – | ≥ 80 | – | ≥ 80 | ≥ 80 |
| N#Cc1ccc(C2=NOC(c3cc(Cl)cc(Cl)c3)(C(F)(F)F)C2)cc1NC(=O)c1cccc(F)c1F (stereo not shown) [D22] | – | ≥ 80 | ≥ 80 | ≥ 80 | ≥ 80 |
| O=C(Nc1cccc(C2=NOC(c3cc(Cl)cc(Cl)c3)(C(F)(F)F)C2)c1F)c1cccc(F)c1F (stereo not shown) [B21] | – | ≥ 80 | ≥ 80 | ≥ 80 | ≥ 80 |
| O=C(Nc1cccc(C2=NOC(c3cc(Cl)cc(Cl)c3)(C(F)(F)F)C2)c1F)c1ccccc1 (stereo not shown) [B16] | – | ≥ 80 | – | – | – |
| Cc1ccc(C(=O)Nc2cccc(C3=NOC(c4cc(Cl)cc(Cl)c4)(C(F)(F)F)C3)c2F)cc1 (stereo not shown) [B6] | – | ≥ 80 | ≥ 80 | ≥ 80 | ≥ 80 |
| O=C(Nc1cc(C2=NOC(c3cc(Cl)cc(Cl)c3)(C(F)(F)F)C2)ccc1F)c1ccc([N+](=O)[O-])cc1 (stereo not shown) [C8] | – | ≥ 80 | ≥ 80 | ≥ 80 | ≥ 80 |
| N#Cc1ccc(C(=O)Nc2cc(C3=NOC(c4cc(Cl)cc(Cl)c4)(C(F)(F)F)C3)ccc2F)cc1 (stereo not shown) [C1] | – | ≥ 80 | ≥ 80 | ≥ 80 | ≥ 80 |
| Cc1ccccc1C(=O)Nc1cc(C2=NOC(c3cc(Cl)cc(Cl)c3)(C(F)(F)F)C2)ccc1F (stereo not shown) [C6] | – | ≥ 80 | ≥ 80 | ≥ 80 | ≥ 80 |
